# Source: ChEMBL document CHEMBL1201862, “PubChem BioAssay data set” (2004)
#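 48-hour exposure; five concentrations; linearly interpolated endpoints. GI50 is the concentration that inhibits growth by half.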 Activity calls are given as the source filed them. No stated cut-off is given here; in the data, active = GI50 up to about 1.1 µM and inactive = higher.
# How the values were obtained:
# Assay in all cases: NCI anticancer screen, dose series, 48 h
# [1] = system: M14
# [2] = system: NCI-H460
# [3] = system: HT-29
# [4] = system: DMS-273
# [5] = system: NCI-H23
# [6] = system: COLO 205
# [7] = system: OVCAR-5
# [8] = system: OVCAR-4
# [9] = system: HCT-116
# [10] = system: HOP-18
# [11] = system: NCI-H522
# [12] = system: Malme-3M
# [13] = system: SF-295
# [14] = system: OVCAR-8
# [15] = system: DMS-114
# [16] = system: LXFL 529
# [17] = system: SK-OV-3
# [18] = system: SNB-75
# [19] = system: SK-MEL-5
# [20] = system: HL-60
# [21] = system: SNB-19
# [22] = system: KM12
# [23] = system: NCI-H226
# [24] = system: SF-539
# [25] = system: 786-0
# [26] = system: M19-MEL
# [27] = system: CAKI-1
# [28] = system: LOX IMVI
# [29] = system: UACC-257
# [30] = system: UO-31
# [31] = system: UACC-62
# [32] = system: A498
# [33] = system: RXF 393
# [34] = system: U-251
# [35] = system: RPMI-8226
# [36] = system: IGROV-1
# [37] = system: DLD-1
# [38] = system: SK-MEL-28
# [39] = system: CCRF-CEM
# [40] = system: KM-20L2
# [41] = system: OVCAR-3
# [42] = system: SK-MEL-2
# [43] = system: MOLT-4
# [44] = system: SN12C
# [45] = system: ACHN
# [46] = system: A549
# [47] = system: SF-268
# [48] = system: HOP-92
# [49] = system: EKVX
# [50] = system: TK-10
# [51] = system: SNB-78
# [52] = system: HCC 2998
# [53] = system: K562
# [54] = system: SW-620
# [55] = system: HCT-15
# [56] = system: SR
# [57] = system: HOP-62
structure (smiles),measurement,setting,value
CCOC(=O)/C(O)=C/c1cc(OC)cc(=O)o1,GI50,[1],> 100 µM (inactive)
same,GI50,[2],> 100 µM (inactive)
same,GI50,[3],> 100 µM (inactive)
same,GI50,[4],> 100 µM (inactive)
same,GI50,[5],> 100 µM (inactive)
same,GI50,[6],> 100 µM (inactive)
same,GI50,[7],> 100 µM (inactive)
same,GI50,[8],> 100 µM (inactive)
same,GI50,[9],> 100 µM (inactive)
same,GI50,[10],> 100 µM (inactive)
same,GI50,[11],> 100 µM (inactive)
same,GI50,[12],> 100 µM (inactive)
same,GI50,[13],> 100 µM (inactive)
same,GI50,[14],> 100 µM (inactive)
same,GI50,[15],> 100 µM (inactive)
same,GI50,[16],> 100 µM (inactive)
same,GI50,[17],> 100 µM (inactive)
same,GI50,[18],> 100 µM (inactive)
same,GI50,[19],> 100 µM (inactive)
same,GI50,[20],> 100 µM (inactive)
same,GI50,[21],> 100 µM (inactive)
same,GI50,[22],> 100 µM (inactive)
same,GI50,[23],> 100 µM (inactive)
same,GI50,[24],> 100 µM (inactive)
same,GI50,[25],> 100 µM (inactive)
same,GI50,[26],> 100 µM (inactive)
same,GI50,[27],> 100 µM (inactive)
same,GI50,[28],> 100 µM (inactive)
same,GI50,[29],> 100 µM (inactive)
same,GI50,[30],> 100 µM (inactive)
same,GI50,[31],> 100 µM (inactive)
same,GI50,[32],> 100 µM (inactive)
same,GI50,[33],> 100 µM (inactive)
same,GI50,[34],> 100 µM (inactive)
same,GI50,[35],> 100 µM (inactive)
same,GI50,[36],> 100 µM (inactive)
same,GI50,[37],> 100 µM (inactive)
same,GI50,[38],> 100 µM (inactive)
same,GI50,[39],> 100 µM (inactive)
same,GI50,[40],> 100 µM (inactive)
same,GI50,[41],> 100 µM (inactive)
same,GI50,[42],> 100 µM (inactive)
same,GI50,[43],> 100 µM (inactive)
same,GI50,[44],> 100 µM (inactive)
same,GI50,[45],> 100 µM (inactive)
same,GI50,[46],> 100 µM (inactive)
same,GI50,[47],> 100 µM (inactive)
same,GI50,[48],> 100 µM (inactive)
same,GI50,[49],> 100 µM (inactive)
same,GI50,[50],> 100 µM (inactive)
same,GI50,[51],> 100 µM (inactive)
same,GI50,[52],> 100 µM (inactive)
same,GI50,[53],> 100 µM (inactive)
same,GI50,[54],> 100 µM (inactive)
same,GI50,[55],> 100 µM
O=Cc1cc(O)c(O)c(O)c1-c1c(C=O)cc(O)c(O)c1O,GI50,[1],> 100 µM (inactive)
same,GI50,[2],> 100 µM (inactive)
same,GI50,[3],> 100 µM (inactive)
same,GI50,[4],> 100 µM (inactive)
same,GI50,[5],> 100 µM (inactive)
same,GI50,[6],> 100 µM (inactive)
same,GI50,[7],> 100 µM (inactive)
same,GI50,[8],> 100 µM (inactive)
same,GI50,[9],> 100 µM (inactive)
same,GI50,[10],> 100 µM (inactive)
same,GI50,[11],> 100 µM (inactive)
same,GI50,[12],> 100 µM (inactive)
same,GI50,[13],> 100 µM (inactive)
same,GI50,[14],> 100 µM (inactive)
same,GI50,[15],79.8 µM (inactive)
same,GI50,[16],> 100 µM (inactive)
same,GI50,[17],> 100 µM (inactive)
same,GI50,[18],> 100 µM (inactive)
same,GI50,[19],> 100 µM (inactive)
same,GI50,[20],> 100 µM (inactive)
same,GI50,[21],> 100 µM (inactive)
same,GI50,[22],> 100 µM (inactive)
same,GI50,[23],> 100 µM (inactive)
same,GI50,[24],> 100 µM (inactive)
same,GI50,[25],> 100 µM (inactive)
same,GI50,[26],> 100 µM (inactive)
same,GI50,[27],> 100 µM (inactive)
same,GI50,[28],> 100 µM (inactive)
same,GI50,[29],> 100 µM (inactive)
same,GI50,[30],> 100 µM (inactive)
same,GI50,[31],> 100 µM (inactive)
same,GI50,[32],> 100 µM (inactive)
same,GI50,[34],> 100 µM (inactive)
same,GI50,[56],82.8 µM (inactive)
same,GI50,[35],64.3 µM (inactive)
same,GI50,[36],> 100 µM (inactive)
same,GI50,[37],> 100 µM (inactive)
same,GI50,[38],> 100 µM (inactive)
same,GI50,[39],85.7 µM (inactive)
same,GI50,[40],> 100 µM (inactive)
same,GI50,[41],> 100 µM (inactive)
same,GI50,[42],> 100 µM (inactive)
same,GI50,[43],> 100 µM (inactive)
same,GI50,[44],> 100 µM (inactive)
same,GI50,[45],> 100 µM (inactive)
same,GI50,[46],> 100 µM (inactive)
same,GI50,[47],> 100 µM (inactive)
same,GI50,[49],> 100 µM (inactive)
same,GI50,[50],> 100 µM (inactive)
same,GI50,[51],> 100 µM (inactive)
same,GI50,[52],> 100 µM (inactive)
same,GI50,[57],> 100 µM (inactive)
same,GI50,[53],67.6 µM (inactive)
same,GI50,[54],> 100 µM (inactive)
same,GI50,[55],> 100 µM
